# US20190275040A1, “COMPOUNDS AND METHODS FOR TREATING OR PREVENTING ALZHEIMER'S DISEASE” (YALE UNIVERSITY, priority 2016, published 2019)
# Experiments:
# Pyk2 [1] = biological target: T1, Pyk2 (Homo sapiens, UniProt Q14289); test: Pyk2 Ki of kinase inhibitors (CHEMBL & IUPHR-BPS database screen, Table 2); assay type: biochemical; settings: Pyk2 versus Fyn
# Pyk2 [2] = biological target: T1, Pyk2; settings: read-out: Pyk2 Ki; cited from earlier work
# APP/PS1 mice = settings: cited from earlier work
# [3] = system: primary hippocampal neurons; test: Dendritic spine motility in primary hippocampal neurons; assay type: cell-based, mouse
# Source text: FIG. 11A: Representative images of dendritic spine motility by standard deviation projection of time-lapse image. […] The standard deviation value for each pixel is shown by thermal color scale. […] FIG. 11B: Quantification of spine motility, expressed as % of changed area of spines with subtraction of changed area of dendritic shaft as background (changed area=(ΔAspine/Aspine×100)−(ΔAshaft/Ashaft×100)). […] Data are graphed as mean±SEM (n=7-8 coverslips from 3 different cultures). **p<0.01, ***p<0.001 by ANOVA, Tukey's multiple comparisons test.
# FIG. 18A: Representative images of dendritic spine motility by standard deviation projection of time stacks. […] To display the spine motility in time-lapse images, the time stack images over 5 min of each conditions were projected to standard deviation using Image J and color coated with thermal color scale. […] FIG. 18B: Quantification of spine motility, expressed as % of changed area of spines with subtraction of dendritic shaft area change (changed area=(ΔAspine/Aspine×100)−(ΔAshaft/Ashaft×100)). Mean±SEM (n=5 coverslips).
# Time-lapse images were acquired for 5 minutes with 10 second intervals in Tyrode's solution using 60× objective lens driven Volocity software. Time-lapse images (31 time frames over 5 min) were subjected to standard deviation (STD) projection to visualize spine motility in single image and colorized with thermal scale using ImageJ software (NIH). Quantitative measurements of spine motility by calculating the changed area at individual dendritic spines were conducted by using ImageJ software by an observer unaware of treatment group.
# [4] = system: cultured hippocampal neurons; test: Graf1c knockdown-induced dendritic spine loss in cultured hippocampal neurons; assay type: cell-based, mouse; settings: 10 μM
# Method: FIGS. 17A-17B illustrate the finding that Graf1 is a functional GTPase activating protein (GAP) in mature neurons and regulates dendritic spine formation. FIG. 17A: Representative fluorescence images of cultured hippocampal neurons. […] Scale bar, 10 μm. FIG. 17B: Quantification of dendritic spine density in the transfected neurons.
# Next, it was evaluated whether RhoA activity is necessary for Pyk2-induced decrease in dendritic spine density. As described elsewhere herein, overexpression of GFP-Pyk2 induces loss of half of hippocampal neuron dendritic spines (FIGS. 10E-10F). […] Therefore, Pyk2 interacts with Graf1c within dendritic spines to allow increased RhoA-GTP levels and subsequent reduced synapse density.
# T1 sequence (Q14289 whole entry, species assumed): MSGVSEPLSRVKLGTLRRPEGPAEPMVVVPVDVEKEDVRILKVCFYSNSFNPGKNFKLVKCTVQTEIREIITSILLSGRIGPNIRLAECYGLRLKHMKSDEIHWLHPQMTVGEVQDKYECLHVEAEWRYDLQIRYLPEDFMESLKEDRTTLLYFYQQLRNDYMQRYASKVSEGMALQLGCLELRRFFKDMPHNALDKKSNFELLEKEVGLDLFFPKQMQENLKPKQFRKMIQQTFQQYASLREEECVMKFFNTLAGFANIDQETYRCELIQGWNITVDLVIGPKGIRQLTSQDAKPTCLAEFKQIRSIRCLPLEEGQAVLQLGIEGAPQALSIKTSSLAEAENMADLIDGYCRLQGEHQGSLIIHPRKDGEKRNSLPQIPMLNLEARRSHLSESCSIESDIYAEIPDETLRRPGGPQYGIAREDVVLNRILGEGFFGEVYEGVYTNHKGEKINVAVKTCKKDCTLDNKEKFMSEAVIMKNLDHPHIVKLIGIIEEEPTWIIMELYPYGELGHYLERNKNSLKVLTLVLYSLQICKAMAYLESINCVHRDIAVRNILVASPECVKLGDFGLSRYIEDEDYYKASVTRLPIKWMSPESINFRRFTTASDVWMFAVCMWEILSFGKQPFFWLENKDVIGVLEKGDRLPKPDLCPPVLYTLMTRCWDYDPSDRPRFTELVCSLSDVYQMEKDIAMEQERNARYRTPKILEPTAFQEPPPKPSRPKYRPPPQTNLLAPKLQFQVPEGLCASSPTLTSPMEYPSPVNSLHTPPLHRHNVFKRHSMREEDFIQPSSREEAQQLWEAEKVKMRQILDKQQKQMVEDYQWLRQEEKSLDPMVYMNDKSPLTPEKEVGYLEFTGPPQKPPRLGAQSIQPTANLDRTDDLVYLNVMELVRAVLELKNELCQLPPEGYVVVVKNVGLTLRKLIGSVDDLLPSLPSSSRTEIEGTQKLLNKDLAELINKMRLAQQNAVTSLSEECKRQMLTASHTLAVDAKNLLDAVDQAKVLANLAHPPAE
smiles,measurement,setting,value
"CN1CCN(CCOc2cc(OC3CCOCC3)c3c(Nc4c(Cl)ccc5c4OCO5)ncnc3c2)CC1 [AZD-0530, N-(5-chloro-1,3-benzodioxol-4-yl)-7-[2-(4-methyl-1-piperazinyl)ethoxy]-5-[(tetrahydro-2H-pyran-4-yl)oxy]-4-quinazolinamine]",Inhibition Character,Pyk2 [1],Fyn selective
same,Ki,Pyk2 [2],> 1 µM
same,memory deficits and synapse loss in APP/PS1 mice,"APP/PS1 mice; mouse, in vivo",rescuing memory deficits and synapse loss
same,activated p-Pyk2 level in transgenic mice,APP/PS1 mice; transgenic mice have a two-fold increase,reduces this level to that of WT mice
"Cc1cc(N2CCOCC2)cc2nc(-c3c(NCC(O)c4cccc(Cl)c4)cc[nH]c3=O)[nH]c12 (centres unmarked) [Compound 5, 4-((2-(3-chlorophenyl)-2-hydroxyethyl)amino)-3-(7-methyl-5-morpholino-1H-benzo[d]imidazol-2-yl)pyridin-2(1H)-one]",Inhibition Character,Pyk2 [1],dual Pyk2-Fyn
"Cn1cc(-c2cnc(N)c3c(-c4ccc(NC(=O)Nc5ccc(OC(F)F)cc5)cc4)csc23)cn1 [Compound 6, 1-(4-(4-amino-7-(1-methyl-1H-pyrazol-4-yl)thieno[3,2-c]pyridin-3-yl)phenyl)-3-(4-(difluoromethoxy)phenyl)urea]",Inhibition Character,Pyk2 [1],dual Pyk2-Fyn
"Cc1cnc(Nc2cccc(S(N)(=O)=O)c2)nc1Nc1ccc(OCC(N)=O)cc1 [Compound 8, 2-(4-((5-methyl-2-((3-sulfamoylphenyl)amino)pyrimidin-4-yl)amino)phenoxy)acetamide]",Inhibition Character,Pyk2 [1],dual Pyk2-Fyn
C[C@@H](N)[C@H]1CC[C@H](C(=O)Nc2ccncc2)CC1 [Compound Y27632],Aβo-induced decrease in spine motility,"[3]; Aβo 24 hours, PF-719 1 μM, Y27632 10 μM",rescue fully the Aβo-induced decrease in spine motility
same,Graf1c-knockdown-induced spine loss,[4],rescue Graf1c-knockdown-induced spine loss
"C[C@]12O[C@H](C[C@]1(O)CO)n1c3ccccc3c3c4c(c5c6ccccc6n2c5c31)CNC4=O [Lestaurtinib, (5S,6S,8R)-6-Hydroxy-6-(hydroxymethyl)-5-methyl-7,8,14,15-tetrahydro-5H-16-oxa-4b,8a,14-triaza-5,8-methanodibenzo[b,h]cycloocta[jkl]cyclopenta[e]-as-indacen-13(6H)-one]",Inhibition Character,Pyk2 [1],dual Pyk2-Fyn
C=C1[C@@H](C)[C@H]2[C@H](Cc3ccccc3)NC(=O)[C@]23[C@H](OC(C)=O)/C=C/[C@@](C)(O)C(=O)[C@@H](C)C/C=C/[C@H]3[C@@H]1O [cytochalasin D],spine motility (actin dependence),"[3]; 1 μm Cytochalasin D for 20 minutes, no Aβo",near complete cessation of spine motility
